Test results as given in patent US9855249B2, “Isoxazole compounds and methods for the treatment of cystic fibrosis” (FLATLEY DISCOVERY LAB, LLC, priority 2014, dated 2018).

Tested on: CFTR mediated chloride current in Primary CF airway epithelial cells
Test: Equivalent current assay in primary CF airway epithelial cells (NAUC)
Format: cell-based
Details: 24 h treatment, stimulated with forskolin and VX770, normalized to positive control 3 μM VX809
Protocol: Primary CF airway epithelial cells were obtained from the UNC Cystic Fibrosis Tissue Procurement and Cell Culture Core. The cells are grown at 37° C. in a Heracell 150i incubator using growth media (BEGM, Fischer). Cells were then transferred to differentiation media (ALI, UNC) for a minimum of 4 weeks on coated Costar snapwells. Two days before the Ussing assay the mucus on the apical surface of the cells was aspirated after incubating with 200 μL of differentiation Media for at least thirty (30) minutes. One day before the Ussing assay test compounds were added to the basolateral surface of the cells at various test concentrations dissolved in DMSO. Duplicate wells were prepared giving a n=3 or n=4 protocol.
Cells were treated for 24 hours with various combinations and concentrations of the test articles, reference standard (3 μM VX809, positive control). Compounds stock solutions were prepared in DMSO and diluted 1/1000 into ALI media to their final assay concentration. Cells were treated with combination solutions (2 mL of each dilution) and incubated at 37° C. for 24 h.
For the equivalent current assay, cells on four Transwell (24-well) plates were treated. Each Transwell plate was filled with 200 μl of HBS on the apical surface and 2 ml on the basolateral surface. Plates were placed horizontally in a heated mount at 37° C., and equilibrated for several minutes. Resting current was measured for 15 min and then blocked by the apical addition of 5 μM benzamil. After 20 min, 10 μM forskolin and 1 μM VX770 were added to both the apical and basolateral side to stimulate CFTR. An increase in chloride current is seen as an upward deflection of the trace. After another 30 min, CFTR-172 (a CFTR inhibitor, 2 μM) and/or bumetanide (20 μM) was added to block CFTR mediated chloride current.
The raw data, current vs. time for the Ussing chamber (sampling interval: 10 s) and voltage vs. time and resistance vs. time for the equivalent current assay (sampling interval: 5 minutes) were transferred to Excel (Microsoft Office Professional, version 14.0.7106.5003) for analysis. CFTR specific current was measured as the average amplitude of the increase in current elicited upon addition forskolin and ending upon addition of the CFTR channel specific blocker CFTR-172. This average is equivalent to the sum of the average forskolin activated and the average VX770-potentiated currents. The average current measured in vehicle (0.1% DMSO) treated cells, Iv, was subtracted from the current for the test article, ITA, or from the corrector reference standard VX809 (3 μM ISTD. For replicate measurements, the average vehicle subtracted response for the test article, was normalized to the average vehicle subtracted […] response of the reference corrector VX809 (3 μM). INSC=(ITA−IV)(ave)/(ISTD−IV)(ave) (Equation 1)
A second endpoint, for the equivalent current assay, evaluated was NAUC, the normalized area under the curve (AUC) measuring the response after addition of forskolin and VX770 to the time point right before the addition of the CFTR inhibitor. The AUC is effectively the average response multiplied by the duration of the response. The AUC of the test article, AUCTA was then corrected by subtracting the average vehicle response, AUCV,ave over the same time range, and normalized as for the inhibitor-sensitive current to the difference of the corrector reference standard VX809 (3 μM VX809r,ave and the vehicle response: NAUCTA=[AUCTA−AUCV,ave]/[AUCVx809r,ave−AUCV,ave](Equation 2).
The normalized value for DMSO is 0.0 and for VX-809 alone is 1.0. Combinations of compounds with VX-809 that give normalized values greater than 1.0 show activity in the combination assay. A value of 2 means the test compound doubles the effect to VX-809 alone.
Experiments were run with a minimum of n=4 replicates per concentration. […]

Structure (SMILES) | NAUC (normalized area under the curve), Test Conc 3 uM | NAUC (normalized area under the curve), Test Conc 10 uM
NS(=O)(=O)c1ccc(CNC(=O)c2cc(-c3ccc(F)cc3)on2)cc1 [Example 18] | ++ (NAUC “++” refers to an observed NAUC 170-140% of positive control) | ++ (NAUC “++” refers to an observed NAUC 170-140% of positive control)
O=C(NCCC(=O)N1CCOCC1)c1cc(-c2ccc(F)cc2)on1 [Example 10] | ++ (NAUC “++” refers to an observed NAUC 170-140% of positive control) | +++ (NAUC “+++” refers to an observed NAUC >170% of positive control)
CN1CCN(C(=O)CCCCNC(=O)c2cc(-c3ccc(F)cc3)no2)CC1 [Example 54, 3-(4-fluorophenyl)-N-(5-(4-methylpiperazin-1-yl)-5-oxopentyl)isoxazole-5-carboxamide] | ++ (NAUC “++” refers to an observed NAUC 170-140% of positive control) | +++ (NAUC “+++” refers to an observed NAUC >170% of positive control)
O=C(NCCC(=O)N1CCCC1)c1cc(-c2ccc(F)cc2)on1 [Example 2] | ++ (NAUC “++” refers to an observed NAUC 170-140% of positive control) | +++ (NAUC “+++” refers to an observed NAUC >170% of positive control)
O=C(NCC(c1ccccc1)c1ccccc1)c1cc(-c2ccc(F)cc2)on1 [Example 32] | + (NAUC “+” refers to an observed NAUC <140% of positive control) | + (NAUC “+” refers to an observed NAUC <140% of positive control)
O=C(CCNC(=O)c1cc(-c2ccc(F)cc2)on1)NCC1CC1 [Example 6] | ++ (NAUC “++” refers to an observed NAUC 170-140% of positive control) | +++ (NAUC “+++” refers to an observed NAUC >170% of positive control)
O=C(NCCc1ccccc1)c1cc(-c2ccc(F)cc2)on1 [Example 17, 5-(4-fluorophenyl)-N-phenethylisoxazole-3-carboxamide] | + (NAUC “+” refers to an observed NAUC <140% of positive control) | ++ (NAUC “++” refers to an observed NAUC 170-140% of positive control)
O=C(CCNC(=O)c1cc(-c2ccc(F)cc2)on1)Nc1ccccn1 [Example 13] | + (NAUC “+” refers to an observed NAUC <140% of positive control) | ++ (NAUC “++” refers to an observed NAUC 170-140% of positive control)
O=C(NCC(F)(F)F)c1cc(-c2ccc(F)cc2)on1 [Example 35] | ++ (NAUC “++” refers to an observed NAUC 170-140% of positive control) | +++ (NAUC “+++” refers to an observed NAUC >170% of positive control)
CC(C)CNC(=O)c1cc(-c2ccc(F)cc2)on1 [Example 22] | + (NAUC “+” refers to an observed NAUC <140% of positive control) | ++ (NAUC “++” refers to an observed NAUC 170-140% of positive control)
O=C(NCC1CC1)c1cc(-c2ccc(F)cc2)on1 [Example 36, N-(cyclopropylmethyl)-5-(4-fluorophenyl)isoxazole-3-carboxamide] | ++ (NAUC “++” refers to an observed NAUC 170-140% of positive control) | +++ (NAUC “+++” refers to an observed NAUC >170% of positive control)
CCNC(=O)c1cc(-c2ccc(F)cc2)on1 [Example 26] | +++ (NAUC “+++” refers to an observed NAUC >170% of positive control) | +++ (NAUC “+++” refers to an observed NAUC >170% of positive control)
CN1CCN(C(=O)CCNC(=O)c2cc(-c3ccccc3)on2)CC1 [Example 48] | +++ (NAUC “+++” refers to an observed NAUC >170% of positive control) | +++ (NAUC “+++” refers to an observed NAUC >170% of positive control)
O=C(NCCCCC(=O)N1CCC1)c1cc(-c2ccccc2)on1 [Example 38, N-(5-(azetidin-1-yl)-5-oxopentyl)-5-phenylisoxazole-3-carboxamide] | +++ (NAUC “+++” refers to an observed NAUC >170% of positive control) | +++ (NAUC “+++” refers to an observed NAUC >170% of positive control)
O=C(NCCCCC(=O)N1CCC1)c1cc(-c2ccccc2)no1 [Example 55, N-(5-(azetidin-1-yl)-5-oxopentyl)-3-phenylisoxazole-5-carboxamide] | ++ (NAUC “++” refers to an observed NAUC 170-140% of positive control) | +++ (NAUC “+++” refers to an observed NAUC >170% of positive control)
O=C(NCCN1CCOCC1)c1cc(-c2ccc(F)cc2)on1 [Example 37, 5-(4-fluorophenyl)-N-(2-morpholinoethyl)isoxazole-3-carboxamide] | + (NAUC “+” refers to an observed NAUC <140% of positive control) | ++ (NAUC “++” refers to an observed NAUC 170-140% of positive control)
CN1CCN(C(=O)CCNC(=O)c2cc(-c3ccc(F)cc3)no2)CC1 [Example 52, 3-(4-fluorophenyl)-N-(3-(4-methylpiperazin-1-yl)-3-oxopropyl)isoxazole-5-carboxamide] | ++ (NAUC “++” refers to an observed NAUC 170-140% of positive control) | +++ (NAUC “+++” refers to an observed NAUC >170% of positive control)
O=C(NCCC(=O)N1CCC1)c1cc(-c2ccccc2)on1 [Example 44, N-(3-(azetidin-1-yl)-3-oxopropyl)-5-phenylisoxazole-3-carboxamide] | +++ (NAUC “+++” refers to an observed NAUC >170% of positive control) | +++ (NAUC “+++” refers to an observed NAUC >170% of positive control)
CCN(CC)C(=O)CCNC(=O)c1cc(-c2ccc(F)cc2)on1 [Example 3] | ++ (NAUC “++” refers to an observed NAUC 170-140% of positive control) | +++ (NAUC “+++” refers to an observed NAUC >170% of positive control)
CN1CCN(C(=O)CCNC(=O)c2cc(-c3ccc(F)cc3)on2)CC1 [Example 1, 5-(4-fluorophenyl)-N-(3-(4-methylpiperazin-1-yl)-3-oxopropyl)isoxazole-3-carboxamide] | ++ (NAUC “++” refers to an observed NAUC 170-140% of positive control) | +++ (NAUC “+++” refers to an observed NAUC >170% of positive control)
O=C(NCCOc1ccccc1)c1cc(-c2ccc(F)cc2)on1 [Example 34] | + (NAUC “+” refers to an observed NAUC <140% of positive control) | + (NAUC “+” refers to an observed NAUC <140% of positive control)
O=C(NCCC(=O)N1CCC1)c1cc(-c2ccc(F)cc2)no1 [Example 51, N-(3-(azetidin-1-yl)-3-oxopropyl)-3-(4-fluorophenyl)isoxazole-5-carboxamide] | ++ (NAUC “++” refers to an observed NAUC 170-140% of positive control) | +++ (NAUC “+++” refers to an observed NAUC >170% of positive control)
O=C(NCCC(=O)N1CCC1)c1cc(-c2ccccc2)no1 [Example 60, N-(3-(azetidin-1-yl)-3-oxopropyl)-3-phenylisoxazole-5-carboxamide] | +++ (NAUC “+++” refers to an observed NAUC >170% of positive control) | +++ (NAUC “+++” refers to an observed NAUC >170% of positive control)
